Marks after values point to notes of the source that are not given here.
Key:
[1] = system: S. aureus (PCI 1203; ATCC 10537); experiment: aPDI with CFL irradiation (406 nm), planktonic bacteria, drop-plate colony count; format: cell-based, Staphylococcus aureus; details: for potency relative to dark toxicity (0 min exposure): 3-log reduction
Method: The aPDI properties of Ga-PpIX were compared against PpIX, whose photosensitizer activities are well known and whose optical profile is similar to that of Ga-PpIX (FIG. 2).
(§1) All bacterial strains were cultured at 37° C. in an aerobic atmosphere unless otherwise noted. […] Bacterial counts were estimated in units of cfu/mL by plating serial dilutions onto agar plates, followed by incubation for 16 hours at 37° C. […] Further details and variations on iron-deficient culture conditions are provided in Supporting Information.
(§2) Antimicrobial assays were performed on planktonic bacteria at 10^7 cfu/mL with variable exposure times to CFL irradiation, followed by plating on agar and incubation at 37° C. […] The irradiated bacteria were plated onto agar in serial tenfold dilutions (10^7-10^1 cfu/mL); controls included one set of wells without photosensitizer, and one set of wells with photosensitizer but without 15 min irradiation, prior to plating (dark toxicity). Bacterial counts were determined by the drop-plate method using TS-agar plates, and reported in colony-forming units per milliliter (cfu/mL).
(§3) The irradiation source consisted of a 20-W compact fluorescent lightbulb (CFL; Sunlite SL20/BLB) housed in an ellipsoidal reflector dome.

S. epidermis (ATCC 155) = experiment: as above; format: cell-based, Staphylococcus epidermidis; details: for potency relative to dark toxicity (0 min exposure): 15 min CFL, 3-log reduction
Method: as §1, §2, §3

S. aureus (PCI 1203) [2] = experiment: Competitive hemin uptake assay (fluorescence microscopy); format: cell-based, Staphylococcus aureus; details: for Fluorescence after 15 min / Fluorescence after 15 min exposure + 1 equiv. hemin: Fe-deficient conditions (TS media containing 3 mM bipy), no background subtraction
Method: To elucidate the relevant structural features for the specific uptake of Ga-PpIX by S. aureus, we performed a competitive uptake assay using one equivalent of hemin against Ga-PpIX, PpIX, and eleven other fluorescent PpIX derivatives, with evaluation by fluorescence microscopy after 15 minutes of co-incubation (FIG. 5 and Table 4). These studies were partly guided by insights taken from the X-ray structures of hemin and Ga-PpIX within the binding pocket of IsdH: (i) coordination of the metal center by an apical tyrosine residue; (ii) the flanking of vinyl groups on pyrrole rings A and B against nearby aromatic residues; and (iii) the extension and presumed hydration of the propionyl groups (rings C and D) outside of the binding pocket.
Bacteria were cultured and assayed in iron-deficient media unless otherwise noted. A stock solution of Ga-PpIX (14.6 μM) was prepared by dispersing 5 mg in 1 mL of 10% DMSO in PBS for 10 minutes in an ultrasonic cleaning bath protected from light, followed by filtration and 10× dilution in PBS just prior to use. Bacterial suspensions (0.5 mL) were treated with freshly prepared solutions of PpIX derivatives for specified periods (5-15 min), then harvested by centrifugation at 5.2 g for 5 minutes, redispersed twice in 0.5 mL deionized water, and centrifuged a third time. A 10-μL aliquot of concentrated bacteria was deposited onto a glass slide and dried in air for 20 min, then imaged by fluorescence microscopy as described above. For details on fluorescence image processing and quantitative analysis, see Supporting Information.
S. aureus (PCI 1203; ATCC 10537) was first cultured in standard TS broth, then in media containing 3 mM bipyridine. Bacteria were pelleted and washed with PBS buffer three times, then resuspended to a final concentration of 10^8 cfu/mL. Stock solutions of hemin and PpIX derivatives 1-13 were prepared at initial concentrations of 292 μM; hemin and fluorescent PpIX solutions were mixed in a 1:1 ratio (0.5 mL), then added to 0.5 mL of bacterial suspension and allowed to sit for 15 min at room temperature. For control studies, hemin or fluorophore solutions were substituted with PBS to maintain constant […]. Bacteria were harvested and washed as described above, then evaluated by fluorescence microscopy for relative uptake efficiency.
Darkfield and fluorescent images were acquired in succession, with the former used to map regions of interest (ROIs) by tracing the outlines of bacteria (FIG. 8). Three images were acquired for each sample; in each case, the tracing map was overlaid onto the fluorescence image to calculate pixel intensities within each ROI, using the mean pixel intensity for quantitative analysis. Bacteria were also imaged without treatment with PpIX analogs, most of which produced values close to that of background except for Salmonella enterica, which served as the upper limit of autofluorescence (cf. FIG. 4). Data collection and image analyses were performed by the same user to ensure consistency for comparative analysis.

S. aureus (PCI 1203) [3] = experiment: as above; format: cell-based, Staphylococcus aureus; details: standard conditions (TS media); no background subtraction
MRSA383 = experiment: Antibacterial activity assay with LED light; format: cell-based, Staphylococcus aureus
Method: (§4) Antibacterial activity assay general protocol: Used LED light to test conditions. Bacteria were grown in TS broth, followed by 3 mM bipyridine in TS broth until log phase. Bacteria were then diluted with PBS, to OD 0.1 (˜10^) and then to ˜10^7 cfu/mL. 100 uL of bacteria were placed in 96 well plates with the appropriate GaPpIX concentration. 2× serial dilutions were then done to obtain other GaPpIX concentrations. Each concentration was done in triplicate. Bacteria were left incubating and irradiating for different amount of times at different light powers or left in the dark. 10× Serial dilutions were done and bacteria were plated for colony counting using the drop-plate technique. Colonies were counted after 24 hours. As reported herein, a 3-log reduction equals measurable antimicrobial action; a 6-log reduction equals total eradication.
(§5) Stock solution preparation (AVM-3-36, 10 nm AgNP). Prepared a solution of (AVM-2-273) GaPpIX-apoHb 1 mg/mL in MP H2O, deaerated. Took 10 mL of 10 nm AgNPs, centrifuged at 900 G for 5 min (Beckman, 3100 RPM), took supernantant and added 200 uL of GaPpIXHb. After overnight, centrifuged 3000 RPM g for 5 minutes (Beckman). Took supernantant and centrifuged using a 100 K CentriCon tube at 4000 RPM for 5 minutes, 3×. Added 15 mM borate buffer to NPs. Based on calibration curve, the stock solution is 1.94 ug/mL AgNP, so stock: 79 μg/mL AgNP, 10.37 μg/mL GaPpIXHb, 0.446 μg/mL GaPpIX (refer to AVM-2-293A and AVM-3-3).
(§6) The following antibacterial activity measurements were assayed in the presence of AgNP.

MRSA386 = experiment: Antibacterial activity assay with LED light; format: cell-based, Staphylococcus aureus
Method: as §4, §5, §6

[4] = 0 min (dark), no irradiation (dark toxicity)
[5] = 15 min CFL 406 nm, 12.4 mW/cm^2 (11.2 J/cm^2)
[6] = one equivalent of hemin, 15 minutes of co-incubation

C=CC1=C(C)c2cc3[nH]c(cc4nc(cc5[nH]c(cc1n2)c(C)c5CCC(=O)O)C(CCC(=O)O)=C4C)c(C)c3C=C [PpIX (2), PpIX, reference compound]
Antimicrobial activity (minimum 3-log CFU reduction) [1, 4]: 36 μM
Antimicrobial activity (minimum 3-log CFU reduction) [1, 5]: 1.1 μM
Eradication (6 log reduction) ([1]; 15 min CFL (11.2 J/cm^2)): 2.3 μM
potency relative to dark toxicity (0 min exposure) ([1]; 15 min CFL): 32x
Eradication (6 log reduction) ([1]; No irradiation (dark toxicity)): 73 μM
Antimicrobial activity (minimum 3-log CFU reduction) (S. epidermis (ATCC 155); [4]): >146 μM
Antimicrobial activity (minimum 3-log CFU reduction) (S. epidermis (ATCC 155); 0 min (dark), no irradiation (dark toxicity), listed as PpIX): >146^d μM
Antimicrobial activity (minimum 3-log CFU reduction) (S. epidermis (ATCC 155); 15 min CFL (11.2 J/cm^2)): 4.5 μM
Eradication (6 log reduction) (S. epidermis (ATCC 155); 15 min CFL (11.2 J/cm^2)): 9 μM
Antimicrobial activity (minimum 3-log CFU reduction) (S. epidermis (ATCC 155); 15 min CFL (11.2 J/cm^2), listed as PpIX): 4.6 μM
potency relative to dark toxicity (0 min exposure) (S. epidermis (ATCC 155)): >32x
Eradication (6 log reduction) (S. epidermis (ATCC 155); No irradiation (dark toxicity)): >146 μM
Fluorescence after 15 min (S. aureus (PCI 1203) [2]): 16.70 a.u.
Fluorescence after 15 min exposure + 1 equiv. hemin (S. aureus (PCI 1203) [2]): 9.4 a.u.
effect of hemin competition on uptake (S. aureus (PCI 1203) [2]; [6]): moderately affected by hemin
Fluorescence after 15 min (S. aureus (PCI 1203) [3]): 11.90 a.u.
Fluorescence after 15 min exposure + 1 equiv. hemin (S. aureus (PCI 1203) [3]): 10.15 a.u.

Ga(III)-protoporphyrin [Ga-PpIX (1)]
Antimicrobial activity (minimum 3-log CFU reduction) [1, 4]: >60 μM
Antimicrobial activity (minimum 3-log CFU reduction) ([1]; 5 min CFL 406 nm, 12.4 mW/cm^2 (3.7 J/cm^2)): 3.75 μM
Eradication (6 log reduction) ([1]; 5 min CFL (3.7 J/cm^2)): 15 μM
potency relative to dark toxicity (0 min exposure) ([1]; 5 min CFL): >16x
Antimicrobial activity (minimum 3-log CFU reduction) [1, 5]: 0.47 μM
Eradication (6 log reduction) ([1]; 15 min CFL (11.2 J/cm^2)): 7.5 μM
potency relative to dark toxicity (0 min exposure) ([1]; 15 min CFL): >128x
concentration for >99.9% reduction ([1]; 15 minutes of CFL irradiation): 470 nM
increase in potency relative to Ga-PpIX dark toxicity (>99.9% reduction) ([1]; 15 minutes of CFL irradiation): 128 fold
increase in potency relative to Ga-PpIX dark toxicity (total eradication, >6 log reduction) ([1]; 15 minutes of CFL irradiation): 16 fold
Eradication (6 log reduction) ([1]; No irradiation (dark toxicity)): 120 μM
Antimicrobial activity (minimum 3-log CFU reduction) (S. epidermis (ATCC 155); [4]): 146 μM
Antimicrobial activity (minimum 3-log CFU reduction) (S. epidermis (ATCC 155); 15 min CFL (11.2 J/cm^2)): 0.57 μM
Eradication (6 log reduction) (S. epidermis (ATCC 155); 15 min CFL (11.2 J/cm^2), listed as Ga-PpIX): 1.1 μM
Eradication (6 log reduction) (S. epidermis (ATCC 155); 15 min CFL (11.2 J/cm^2), listed as GaPpIX (1)): 4.5 μM
potency relative to dark toxicity (0 min exposure) (S. epidermis (ATCC 155)): 256x
bactericidal activity (S. epidermis (ATCC 155); CFL irradiation, clinical isolate from a skin lesion): 570 nM
Eradication (6 log reduction) (S. epidermis (ATCC 155); No irradiation (dark toxicity)): 146 μM
concentration for 3-log reduction (MRSA383): 59 nM
concentration for 6-log reduction (MRSA383): 118 nM
concentration for 3-log reduction (MRSA386): 118 nM
concentration for 6-log reduction (MRSA386): 235 nM
Fluorescence after 15 min (S. aureus (PCI 1203) [2]): 42.55 a.u.
Fluorescence after 15 min exposure + 1 equiv. hemin (S. aureus (PCI 1203) [2]): 10.0 a.u.
reduction in fluorescence by competition with hemin (S. aureus (PCI 1203) [2]; [6]): greater than 80%
Fluorescence after 15 min (S. aureus (PCI 1203) [3]): 18.09 a.u.
Fluorescence after 15 min exposure + 1 equiv. hemin (S. aureus (PCI 1203) [3]): 15.08 a.u.

Reference: US10722582B2, “Targeted antimicrobial photodynamic therapy” (Purdue Research Foundation, priority 2018, dated 2020)
